Reference: patent publication US4517004A, “Aryl phosphoric triamide and aryl phosphorodiamidate urease and nitrification inhibitors and urease and nitrification inhibited urea and reduced nitrogen based fertilizer compositions” (Allied Corporation, priority 1983, dated 1985)
Where two headings read alike, the source gives them in different places.

Legend:
[1] = test system: urease in soil (Cazenovia silt loam; Plano silt loam); experiment: Urease inhibition efficacy test in soil (urea remaining after incubation); format: biochemical; conditions: 40 micrograms compound per gram soil, 42.8 mg urea per 20 g soil, incubated 3 days at 25° C., triplicate; for % Inhibition 40 Micrograms per gram soil, Cazenovia pH 7.2: New York soil (Cazenovia silt loam)
Protocol: Efficacy tests were conducted to evaluate the efficacy of certain representative phosphoric triamide compounds of this invention as urease inhibitors in comparison with the known compound 4-aminophenylphosphoric triamide. The inhibition tests were run in a New York soil (Cazenovia silt loam, pH 7.0), or in Wisconsin soil (Plano silt loam). Evaluations (run in triplicate) consisted of applying 800 micrograms of the test compound in 5 mL of water and 42.8 mg of urea in 1 mL of water to 20 g of air-dry soil in a glass bottle. The bottle was capped with perforated aluminum foil and incubated at 25° C. for three days prior to extraction with 100 mL of a 2M KCl solution containing 0.5 mg of phenylmercuric acetate. The extracts were then analyzed for remaining urea using an autoanalyzer. Percent inhibition was calculated as [formula] where A is urea recovered from unincubated sample (urea added to soil and immediately extracted); B is urea recovered from inhibited sample; and C is urea recovered from the control (uninhibited sample).

[2] = target: T1, jack bean urease (Sigma, Type IX) (Canavalia ensiformis, UniProt P07374); experiment: Efficacy test with commercial purified jack bean urease in homogeneous solution (modified Bremner procedure); format: biochemical; conditions: read-out: % Inhibition 10^-6 M
T1 construct: purchased Sigma Type IX
T1 sequence (P07374 whole entry, looked up): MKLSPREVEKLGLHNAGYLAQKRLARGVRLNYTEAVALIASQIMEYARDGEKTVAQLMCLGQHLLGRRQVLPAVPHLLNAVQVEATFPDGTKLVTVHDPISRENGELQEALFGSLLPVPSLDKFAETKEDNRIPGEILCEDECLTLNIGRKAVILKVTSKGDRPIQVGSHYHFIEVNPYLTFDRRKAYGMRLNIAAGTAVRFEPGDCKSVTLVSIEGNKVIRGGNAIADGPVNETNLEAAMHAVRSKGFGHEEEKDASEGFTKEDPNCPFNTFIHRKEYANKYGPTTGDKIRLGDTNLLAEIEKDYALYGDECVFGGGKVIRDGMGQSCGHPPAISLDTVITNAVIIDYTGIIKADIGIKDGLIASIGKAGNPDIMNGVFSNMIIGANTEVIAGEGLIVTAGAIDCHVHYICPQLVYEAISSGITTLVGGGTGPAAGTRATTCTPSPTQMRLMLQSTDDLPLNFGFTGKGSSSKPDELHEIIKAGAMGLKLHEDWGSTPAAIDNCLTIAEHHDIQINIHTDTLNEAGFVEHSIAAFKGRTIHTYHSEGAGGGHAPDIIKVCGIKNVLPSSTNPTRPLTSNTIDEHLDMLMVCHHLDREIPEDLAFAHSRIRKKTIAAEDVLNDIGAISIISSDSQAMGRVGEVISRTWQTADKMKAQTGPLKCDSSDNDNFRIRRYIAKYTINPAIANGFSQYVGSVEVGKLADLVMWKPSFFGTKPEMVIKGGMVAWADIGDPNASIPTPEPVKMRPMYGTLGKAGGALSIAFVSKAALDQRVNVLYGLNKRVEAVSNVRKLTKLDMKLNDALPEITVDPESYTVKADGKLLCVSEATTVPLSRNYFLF
Protocol: Efficacy tests were also conducted with jack bean urease. The procedure of Bremner (see L. A. Douglas, J. M. Bremner, Soil Biol. Biochem., 3, 859-62 (1970 and references therein) was modified by replacing the soil as the source of urease with commercial purified jack bean urease (Sigma, Type IX). The incubation then proceeds in homogeneous solution. The results are generally parallel to those obtained in the soil test of Example IV and are given in Table II.

[3] = test system: soil nitrification; experiment: Nitrification inhibition efficacy test in Cazenovia silt loam soil (nitrate formed from diammonium phosphate); conditions: Cazenovia silt loam pH 7.3
Protocol: Efficacy tests were conducted to evaluate the efficacy of certain representative phosphoric triamide compounds as nitrification inhibitors. All compounds were evaluated in Cazenovia silt loam soil (pH 7.3). The evaluations consisted of applying either simultaneously (to) or after 14 days (t14) a solution of 6.00 mg (300 μg/g soil) at diammonium phosphate in 1 mL of water to triplicate 20 g samples of air dry soil contained in 250 mL square glass bottles that had been treated with a solution of either 0 or 0.800 mg (40 μg/g soil) of the test compound in 5 mL of water. Each bottle was capped with perforated aluminum foil, incubated for 14 days at 25° C. after diammonium phosphate application, and then extracted with 100 mL of 2M potassium chloride containing 0.5 mg (5 mg/L) of phenylmercuric acetate. Each extract was allowed to settle, and an aliquot was frozen and then analyzed for nitrate using an autoanalyzer. The percent inhibition obtained during the incubation was calculated by the formula: [formula] where A is the nitrate recovered from unincubated soil before diammonium phosphate addition; B is nitrate recovered from uninhibited soil; and C is nitrate recovered from inhibited soil.

[4] = compound at 10^-6 M, purified jack bean urease, homogeneous solution

Row | SMILES | % Inhibition 40 Micrograms per gram soil, Cazenovia pH 7.2 [1] [%] | inhibition at 1 µM [2] [%] | inhibition at 1 µM [2, 4] [%] | % Inhibition 40 Micrograms per gram soil, Wisconsin pH 5.4 ([1]; Wisconsin soil (Plano silt loam), pH 5.4) [%] | % Inhibition at 40 μg per gram of soil, t14 ([3]; diammonium phosphate (300 μg/g soil) applied 14 days after compound (t14), 14 days at 25° C. after application) [%] | % Inhibition at 40 μg per gram of soil, t0 ([3]; diammonium phosphate (300 μg/g soil) applied simultaneously with compound (t0), 14 days at 25° C.) [%]
1 | Nc1ccc(NP(N)(N)=O)cc1 [4-Aminophenylphosphoric triamide, 4-aminophenylphosphoric triamide, reference compound] | 55 | 0 |  |  |  | 
2 | Nc1ccc(OP(N)(N)=O)cc1 [4-Aminophenylphosphorodiamidate, 4-aminophenylphosphorodiamidate] | 91 |  | 80 |  |  | 
3 | CN(c1ccc(O)cc1)P(N)(N)=O [N-(Methyl)-N-(4-hydroxyphenyl) Phosphoric triamide] | 87 |  |  | 33 |  | 
4 | CC(C)(C)c1cc(OP(N)(N)=O)ccc1O [Phosphorodiamidic Acid 3-(1',1'-dimethylethyl)-4-hydroxyphenyl Ester] | 87 |  | 29 |  | 0 | 39
